Experiments:
[1] = system: human immunodeficiency virus (HIV); assay: Antiviral activity in HIV-infected (Nef substituted with EGFP) MT-4 cells: GFP fluorescence, HIV-1 p24 Antigen Capture Assay; assay type: cell-based; details: 1 nM, 3 days
Description: Thereafter, the cultured cells were centrifuged at 6,000 rpm for 3 minutes to obtain a cell pallet. Then, fluorescence intensity of a green fluorescence protein (GFP) secreted from the obtained cells was measured, a level of viral infection was confirmed using an HIV-1 p24 Antigen Capture Assay kit (Advanced BioScience Laboratories), and cell viability was determined using an MTT assay. 0.5% DMSO and 1 nM 3′-azido-3′-deoxy-thyminine (AZT) were used as the negative and positive controls, respectively.

[2] = target: HIV reverse transcriptase (Human immunodeficiency virus type 1 group M subtype B, UniProt P04585); assay: Inhibition of reverse transcriptase activity, Enzchek Reverse Transcriptase assay kit; assay type: biochemical; details: positive controls, FIG. 3

Row | Compound | antiviral activity [1] | inhibition of reverse transcriptase activities (in words) [2]
1 | Cc1cn([C@H]2C[C@H](N=[N+]=[N-])[C@@H](CO)O2)c(=O)[nH]c1=O [AZT, 3′-azido-3′-deoxy-thyminine] | 49.8% | not inhibited
2 | Cc1cn([C@H]2C[C@H](N=[N+]=[N-])[C@@H](CO[P@](=O)(O)O[P@](=O)(O)OP(=O)(O)O)O2)c(=O)[nH]c1=O [AZTTP] |  | increasingly expressed according to a concentration
3 | Cc1cc(C#N)cc(C)c1Oc1nc(Nc2ccc(C#N)cc2)nc(N)c1Br [Etravirine] |  | increasingly expressed according to a concentration

From patent US9084758B2, “Antiviral compositions comprising ethanol extract of Tetracera scandens and use thereof” (The Catholic University of Korea Industry-Academic …, priority 2012, dated 2015)
